Patent US10562898B2, “Substituted benzenesulfonamides as inhibitors of alpha-4 beta-7 integrin activity” (EA PHARMA CO., LTD., priority 2016, dated 2020)
pIC50: −log10 of the molar value.

These compounds were tested against T1, α4β7 integrin (Homo sapiens, UniProt P13612+P26010) (assay: MAdCAM-1/α4β7 integrin binding inhibitory activity evaluation test (RPMI-8866 cells binding to MAdCAM-1/Fc)). Details: recombinant mouse MAdCAM-1/Fc, no serum.
T1 construct: a cell line RPMI-8866, which is known to express α4β7 integrin; endogenous in cells; host or cells: RPMI-8866 (human B cell line)
T1 sequence (P13612 34-1032): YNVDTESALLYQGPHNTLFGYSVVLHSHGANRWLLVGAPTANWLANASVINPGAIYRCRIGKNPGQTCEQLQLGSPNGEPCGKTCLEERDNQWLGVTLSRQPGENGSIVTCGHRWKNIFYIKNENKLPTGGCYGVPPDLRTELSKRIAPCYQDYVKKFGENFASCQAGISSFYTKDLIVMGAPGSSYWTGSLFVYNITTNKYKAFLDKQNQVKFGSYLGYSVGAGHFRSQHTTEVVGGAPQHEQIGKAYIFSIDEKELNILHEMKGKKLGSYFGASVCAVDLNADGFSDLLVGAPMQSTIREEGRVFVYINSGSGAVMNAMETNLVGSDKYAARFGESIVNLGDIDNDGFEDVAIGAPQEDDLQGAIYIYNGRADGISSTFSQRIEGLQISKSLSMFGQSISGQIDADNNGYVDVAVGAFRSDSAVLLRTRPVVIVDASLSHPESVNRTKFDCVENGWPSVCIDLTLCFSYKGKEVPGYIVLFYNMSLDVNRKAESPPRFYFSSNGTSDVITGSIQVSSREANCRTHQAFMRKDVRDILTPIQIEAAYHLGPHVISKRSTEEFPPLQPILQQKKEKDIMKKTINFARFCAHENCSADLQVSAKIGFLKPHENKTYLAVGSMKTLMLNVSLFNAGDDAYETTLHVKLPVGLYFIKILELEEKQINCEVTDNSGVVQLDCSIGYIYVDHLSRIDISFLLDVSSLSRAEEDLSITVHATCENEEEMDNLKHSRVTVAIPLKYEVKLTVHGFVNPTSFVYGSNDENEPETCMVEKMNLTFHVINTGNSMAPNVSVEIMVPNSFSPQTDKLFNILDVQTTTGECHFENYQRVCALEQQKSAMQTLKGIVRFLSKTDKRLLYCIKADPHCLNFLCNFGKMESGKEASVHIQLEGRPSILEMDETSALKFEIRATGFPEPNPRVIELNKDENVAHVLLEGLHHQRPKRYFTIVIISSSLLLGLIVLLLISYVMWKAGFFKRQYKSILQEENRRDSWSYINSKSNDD
T1 sequence (P26010 20-798): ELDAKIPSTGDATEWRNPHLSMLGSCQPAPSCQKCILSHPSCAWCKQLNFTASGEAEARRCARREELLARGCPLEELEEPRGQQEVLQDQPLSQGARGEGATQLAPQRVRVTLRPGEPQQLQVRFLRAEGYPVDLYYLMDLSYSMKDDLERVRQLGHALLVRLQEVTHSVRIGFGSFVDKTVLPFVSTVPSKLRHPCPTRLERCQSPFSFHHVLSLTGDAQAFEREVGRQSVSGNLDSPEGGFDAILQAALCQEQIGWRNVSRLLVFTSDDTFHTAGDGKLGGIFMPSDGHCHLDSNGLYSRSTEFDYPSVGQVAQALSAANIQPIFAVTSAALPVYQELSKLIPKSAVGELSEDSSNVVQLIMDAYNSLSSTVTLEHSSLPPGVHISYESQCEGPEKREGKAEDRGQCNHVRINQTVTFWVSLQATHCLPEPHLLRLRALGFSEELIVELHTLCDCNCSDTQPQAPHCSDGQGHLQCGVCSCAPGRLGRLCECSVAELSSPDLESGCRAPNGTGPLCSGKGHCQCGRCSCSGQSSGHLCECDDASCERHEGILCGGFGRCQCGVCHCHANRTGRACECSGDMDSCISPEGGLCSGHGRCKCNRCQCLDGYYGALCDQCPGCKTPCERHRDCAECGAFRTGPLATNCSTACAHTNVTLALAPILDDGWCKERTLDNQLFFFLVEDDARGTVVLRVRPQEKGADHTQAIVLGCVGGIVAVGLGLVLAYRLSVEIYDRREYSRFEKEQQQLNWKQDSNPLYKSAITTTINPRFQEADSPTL
Format: cell-based
Procedure: (2) MAdCAM-1/α4β7 Integrin Binding Inhibitory Activity Evaluation Test
Each test substance was measured in terms of an ability to inhibit the MAdCAM-1 binding of a human B cell line, namely, a cell line RPMI-8866, which is known to express α4β7 integrin.
A solution of recombinant mouse MAdCAM-1/Fc (R&D Systems, Inc.) (0.75 μg/mL) diluted with a buffer A (carbonate buffer, pH 9.6) was added in an amount of 50 μL/well to a 96-well microtiter plate, followed by incubation at 4° C. overnight. After the plate was washed with PBS once, 150 μL/well of Block Ace (Snow Brand Milk Products Co., Ltd.) was added, followed by incubation at room temperature for 2 hours. After removal, the plate was washed with PBS once.
Then, 100 μL of the RPMI-8866 cells (2×10^6 cells/mL) and 100 μL of the test substance at each of various concentrations diluted with a binding buffer (DMEM containing 40 mM HEPES, 0.2% BSA, and 4 mM MnCl2) were added on the plate coated with the MAdCAM-1/Fc (5×10^5 cells/well), followed by incubation at 30° C. for 15 to 60 minutes. After the cells were bound to the wells, the plate was washed with PBS to remove unbound cells. A buffer C (PBS containing 1.5% Triton X-100) in an amount 50 μL/well was added to the plate to lyse the bound RPMI-8866 cells. After 30 μL of a substrate buffer (Promega, CytoTox 96 Non-Radioactive Cytotoxicity Assay) was added to 30 μL of the cell lysate, a reaction was allowed to proceed at room temperature in the dark for 30 minutes. After 30 μL of a stop solution (Promega, CytoTox 96 Non-Radioactive Cytotoxicity Assay) was added to each, and then an absorbance at 490 nm was measured using a plate reader. The absorbance obtained here represents a detection result of an activity of lactate dehydrogenase (LDH) eluted in the supernatant of each well, that is, the absorbance is proportional to the number of RPMI-8866 cells bound to the MAdCAM-1 and thus remaining on the plate. The test was performed in duplicate. Provided that the absorbance of the well containing no test substance was 100%, a cell binding rate with the test substance at each of the various concentrations was figured out, and a concentration IC50 which brought about 50% binding inhibition was calculated.

Compared with `Cn1c(=O)n(-c2ccc(C[C@H](NC(=O)c3cc(F)c(NS(=O)(=O)c4ccc(NC(=O)C(C)(C)C)cc4)cc3F)C(=O)O)cc2)c(=O)c2ccncc21` [Compound A1, (2S)-2-[[4-[[4-(2,2-dimethylpropanoylamino)phenyl]sulfonylamino]-2,5-difluoro-benzoyl]amino]-3-[4-(1-methyl-2,4-dioxo-pyrido[3,4-d]pyrimidin-3-yl)phenyl]propanoic acid], `Cn1c(=O)n(-c2ccc(C[C@H](NC(=O)c3cc(F)c(NS(=O)(=O)c4ccc(NC(=O)NC(C)(C)C)cc4)cc3F)C(=O)O)cc2)c(=O)c2ccncc21` [Compound A5] is 0.95 log units lower in pIC50: 9.59 for the first, 8.64 for the second. The first is the more potent here.

Compared with `CC(=O)Nc1ccc(S(=O)(=O)Nc2cc(F)c(C(=O)N[C@@H](Cc3ccc(-n4c(=O)c5ccncc5n(C)c4=O)cc3)C(=O)O)cc2F)cc1` [Compound A2], `Cn1c(=O)n(-c2ccc(C[C@H](NC(=O)c3cc(F)c(NS(=O)(=O)c4ccc(NC(=O)C(C)(C)CO)cc4)cc3F)C(=O)O)cc2)c(=O)c2ccncc21` [Compound A18] is 0.52 log units higher in pIC50: 8.92 for the first, 9.44 for the second. The second is the more potent here.

`CCC(CC)C(=O)Nc1ccc(S(=O)(=O)Nc2cc(F)c(C(=O)N[C@@H](Cc3ccc(-n4c(=O)c5ccncc5n(C)c4=O)cc3)C(=O)O)cc2F)cc1` [Compound A3] and `CCC(CC)C(=O)Nc1ccc(S(=O)(=O)Nc2cc(F)c(C(=O)N[C@@H](Cc3ccc(-n4c(=O)c(C)c(C)n(C)c4=O)cc3)C(=O)O)cc2F)cc1` [Compound A4] are within 0.2 log units of each other in pIC50: 9.14 for the first, 9.07 for the second.

Compared with `Cn1c(=O)n(-c2ccc(C[C@H](NC(=O)c3cc(F)c(NS(=O)(=O)c4ccc(NC(=O)C5CCNCC5)cc4)cc3F)C(=O)O)cc2)c(=O)c2ccncc21` [Compound A6, (2S)-2-[[2,5-difluoro-4-[[4-(piperidine-4-carbonylamino)phenyl]sulfonylamino]benzoyl]amino]-3-[4-(1-methyl-2,4-dioxo-pyrido[3,4-d]pyrimidin-3-yl)phenyl]propanoic acid], `Cn1c(=O)n(-c2ccc(C[C@H](NC(=O)c3cc(F)c(NS(=O)(=O)c4ccc(NC(=O)C5CCOCC5)cc4)cc3F)C(=O)O)cc2)c(=O)c2ccncc21` [Compound A14] is 0.80 log units higher in pIC50: 8.62 for the first, 9.42 for the second. The second is the more potent here.

Going from `Cn1c(=O)n(-c2ccc(C[C@H](NC(=O)c3cc(F)c(NS(=O)(=O)c4ccc(NC(=O)c5ccncc5)cc4)cc3F)C(=O)O)cc2)c(=O)c2ccncc21` [Compound A7] to `Cn1c(=O)n(-c2ccc(C[C@H](NC(=O)c3cc(F)c(NS(=O)(=O)c4ccc(NC(=O)C5(O)CC5)cc4)cc3F)C(=O)O)cc2)c(=O)c2ccncc21` [Compound A23], the pIC50 falls from 9.44 to 9.00 (0.44 log units).

`Cc1c(C)n(C)c(=O)n(-c2ccc(C[C@H](NC(=O)c3cc(F)c(NS(=O)(=O)c4ccc(NC(=O)C(C)(C)C)cc4)cc3F)C(=O)O)cc2)c1=O` [Compound A8] and `Cc1c(C)n(C)c(=O)n(-c2ccc(C[C@H](NC(=O)c3cc(F)c(NS(=O)(=O)c4ccc(NC(=O)C(C)(C)CO)cc4)cc3F)C(=O)O)cc2)c1=O` [Compound A21] are within 0.2 log units of each other in pIC50: 9.48 for the first, 9.47 for the second.

`Cn1c(=O)n(-c2ccc(C[C@H](NC(=O)c3cc(F)c(NS(=O)(=O)c4ccc(NC(=O)C(C)(C)C)s4)cc3F)C(=O)O)cc2)c(=O)c2ccncc21` [Compound A9] and `Cn1c(=O)n(-c2ccc(C[C@H](NC(=O)c3cc(F)c(NS(=O)(=O)c4ccc(NC(=O)C(C)(C)C)c(F)c4)cc3F)C(=O)O)cc2)c(=O)c2ccncc21` [Compound A12] are within 0.2 log units of each other in pIC50: 9.39 for the first, 9.35 for the second.

Going from `Cc1c(C)n(C)c(=O)n(-c2ccc(C[C@H](NC(=O)c3cc(F)c(NS(=O)(=O)c4ccc(NC(=O)C(C)(C)C)s4)cc3F)C(=O)O)cc2)c1=O` [Compound A10] to `Cc1c(C)n(C)c(=O)n(-c2ccc(C[C@H](NC(=O)c3cc(F)c(NS(=O)(=O)c4cc(NC(=O)C(C)(C)C)cs4)cc3F)C(=O)O)cc2)c1=O` [Compound A11], the pIC50 falls from 9.42 to 8.70 (0.72 log units). The first is the more potent here.

`Cc1c(C)n(C)c(=O)n(-c2ccc(C[C@H](NC(=O)c3cc(F)c(NS(=O)(=O)c4ccc(NC(=O)C5CCOCC5)cc4)cc3F)C(=O)O)cc2)c1=O` [Compound A15] and `Cc1c(C)n(C)c(=O)n(-c2ccc(C[C@H](NC(=O)c3cc(F)c(NS(=O)(=O)c4ccc(NC(=O)C5(O)CC5)cc4)cc3F)C(=O)O)cc2)c1=O` [Compound A22] are within 0.2 log units of each other in pIC50: 9.03 for the first, 9.01 for the second.

Compared with `COC1(C(=O)Nc2ccc(S(=O)(=O)Nc3cc(F)c(C(=O)N[C@@H](Cc4ccc(-n5c(=O)c6ccncc6n(C)c5=O)cc4)C(=O)O)cc3F)cc2)CC1` [Compound A16], `Cn1c(=O)n(-c2ccc(C[C@H](NC(=O)c3cc(F)c(NS(=O)(=O)c4ccc(NC(=O)C5(C(F)(F)F)CC5)cc4)cc3F)C(=O)O)cc2)c(=O)c2ccncc21` [Compound A24] is 0.24 log units higher in pIC50: 9.28 for the first, 9.52 for the second.

Going from `COC1(C(=O)Nc2ccc(S(=O)(=O)Nc3cc(F)c(C(=O)N[C@@H](Cc4ccc(-n5c(=O)c(C)c(C)n(C)c5=O)cc4)C(=O)O)cc3F)cc2)CC1` [Compound A17] to `Cc1c(C)n(C)c(=O)n(-c2ccc(C[C@H](NC(=O)c3cc(F)c(NS(=O)(=O)c4ccc(NC(=O)C5(C(F)(F)F)CC5)cc4)cc3F)C(=O)O)cc2)c1=O` [Compound A20], the pIC50 rises from 9.26 to 9.60 (0.34 log units). The second is the more potent here.

First: Cc1c(C)n(C)c(=O)n(-c2ccc(C[C@H](NC(=O)c3cc(F)c(NS(=O)(=O)c4ccc(NC(=O)C(C)(C)C)cn4)cc3F)C(=O)O)cc2)c1=O [Compound A19]
Second: Cc1c(C)n(C)c(=O)n(-c2ccc(C[C@H](NC(=O)c3cc(F)c(NS(=O)(=O)c4ccc(NC(=O)C(C)(C)C)nc4)cc3F)C(=O)O)cc2)c1=O [Compound A25]
The pIC50 of the first is 0.45 log units higher: 9.41 for the first, 8.96 for the second. The first is the more potent here.

First: Cn1c(=O)n(-c2ccc(C[C@H](NC(=O)c3cc(F)c(NS(=O)(=O)c4ccc(NC(=O)C(C)(C)C)cc4)cc3F)C(=O)O)cn2)c(=O)c2ccncc21 [Compound A26]
Second: Cn1c2c(c(=O)n(-c3ccc(C[C@H](NC(=O)c4cc(F)c(NS(=O)(=O)c5ccc(NC(=O)C(C)(C)C)cc5)cc4F)C(=O)O)cc3)c1=O)CCOC2 [Compound A27]
The pIC50 of the first is 0.20 log units higher: 9.64 for the first, 9.44 for the second.
